Tested on: hepatic mRNA expression in STAM™ mice
Experiment: Murine STAM model of NASH-HCC: hepatic gene expression by quantitative RT-PCR
Assay type: in vivo, mouse
Conditions: n = 8, STAM mice, normalized to non-treated group
Procedure: A study was performed to evaluate the efficacy of gemcabene calcium salt hydrate Crystal Form 1 having a PSD90 of 52 μm as measured by laser light diffraction, in treating non-alcoholic steatosis hepatitis (NASH) in the murine STAM™ model of NASH-HCC.
Briefly, two-day old neonatal C57BL/6 male mice were administered low-dose streptozotocin (STZ), and were subsequently fed a HFC diet from 4 weeks of age. In this model, the mice typically develop liver steatosis and diabetes, reaching steatohepatitis within 3 weeks, followed by cirrhosis within 8 weeks, and carcinoma within 16 weeks. In the current study, mice were administered daily oral gemcabene calcium salt hydrate Crystal Form 1 starting at week 6 of age and were sacrificed at week 9. […] These STAM™ groups were orally administered from week 6 one of the following: water-vehicle, gemcabene calcium salt hydrate Crystal Form 1 at 30, 100 and 300 mg/kg daily, or telmisartan ([…]®) 10 mg/kg daily. […] All groups were sacrificed at week 9. Vehicle, gemcabene calcium salt hydrate Crystal Form 1, or telmisartan were administered by oral gavage once daily.
Various gene expression markers of liver metabolism were evaluated by Real-Time PCR (RT-PCR) in all mouse groups. Total RNA was extracted from liver samples using RNAiso (Takara Bio, Japan) according to the manufacturer's instructions. […] of RNA was reverse-transcribed using a reaction mixture containing 4.4 mM MgCl2 (F. Hoffmann-La Roche, Switzerland), 40 U RNase inhibitor (Toyobo, Japan), 0.5 mM dNTP (Promega, USA), 6.28 μM random hexamer (Promega), 5×first strand buffer (Promega), 10 mM dithiothreitol (Invitrogen, USA) and 200 U MMLV-RT (Invitrogen) in a final volume of 20 μL. The reaction was carried out for 1 hour at 37° C., followed by 5 minutes at 99° C. Real-time PCR was performed using real-time PCR DICE and SYBR premix Taq (Takara Bio). To calculate the relative mRNA expression level, the expression of each gene was normalized to that of reference gene 36B4 (gene symbol: RplpO). Information of PCR-primer sets is described in Tables 37A-37C. Statistical analyses were performed using the Bonferroni Multiple Comparison Test on GraphPad Prism 6 (GraphPad Software Inc., USA). P values <0.05 were considered statistically significant. Results are expressed as mean±SD.
In order to calculate the relative mRNA expression level, the expression of each gene was normalized to that of the reference gene 36B4 (gene symbol: RplpO). The gene expression levels were measured by quantitative RT-PCR. Results were normalized with values for the vehicle-treated normal group. […] Gemcabene calcium salt hydrate Crystal Form 1 (PSD90=52 μm) modulated the mRNA expression of many hepatic genes that play a significant role in the liver homeostasis and injury.

SMILES: CC(C)(CCCCOCCCCC(C)(C)C(=O)O)C(=O)O [gemcabene, 6-(5-carboxy-5-methyl-hexyloxy)-2,2-dimethyl-hexanoic acid]
- ACC1 gene expression (mean ± SD) (30 mg/kg): 1.0 ± 0.1
- ACC2 gene expression (mean ± SD) (30 mg/kg): 0.6 ± 0.2
- ADH-4 gene expression (mean ± SD) (30 mg/kg): 0.8 ± 0.2
- ANGPTL3 gene expression (mean ± SD) (30 mg/kg): 0.7 ± 0.2
- ANGPTL4 gene expression (mean ± SD) (30 mg/kg): 2.9 ± 0.5
- ANGPTL8 gene expression (mean ± SD) (30 mg/kg): 0.3 ± 0.1
- ApoC-III gene expression (mean ± SD) (30 mg/kg): 0.7 ± 0.1
- CCR2 gene expression (mean ± SD) (30 mg/kg): 3.3 ± 1.0
- CCR5 gene expression (mean ± SD) (30 mg/kg): 2.4 ± 0.9
- CRP gene expression (mean ± SD) (30 mg/kg): 0.9 ± 0.2
- CXCL1/KC gene expression (mean ± SD) (30 mg/kg): 0.8 ± 0.4
- Fetuin-A gene expression (mean ± SD) (30 mg/kg): 1.1 ± 0.4
- IL-1β gene expression (mean ± SD) (30 mg/kg): 1.0 ± 0.5
- IL-6 gene expression (mean ± SD) (30 mg/kg): 4.6 ± 4.7
- LDL receptor gene expression (mean ± SD) (30 mg/kg): 0.9 ± 0.2
- LPL gene expression (mean ± SD) (30 mg/kg): 3.8 ± 0.9
- MCP-1 gene expression (mean ± SD) (30 mg/kg): 3.2 ± 1.5
- MIP-1β gene expression (mean ± SD) (30 mg/kg): 5.4 ± 3.2
- MMP-2 gene expression (mean ± SD) (30 mg/kg): 1.7 ± 0.5
- NF-κB gene expression (mean ± SD) (30 mg/kg): 1.3 ± 0.2
- PNPLA3 gene expression (mean ± SD) (30 mg/kg): 0.3 ± 0.1
- SCD1 gene expression (mean ± SD) (30 mg/kg): 0.2 ± 0.1
- SREBP-1 gene expression (mean ± SD) (30 mg/kg): 0.9 ± 0.2
- Sulf-2 gene expression (mean ± SD) (30 mg/kg): 5.1 ± 1.1
- TIMP-1 gene expression (mean ± SD) (30 mg/kg): 9.9 ± 4.9
- TNF-α gene expression (mean ± SD) (30 mg/kg): 4.0 ± 1.8
- α-SMA gene expression (mean ± SD) (30 mg/kg): 2.6 ± 0.6
- ACC1 gene expression (mean ± SD) (100 mg/kg): 0.7 ± 0.1
- ACC2 gene expression (mean ± SD) (100 mg/kg): 0.4 ± 0.1
- ADH-4 gene expression (mean ± SD) (100 mg/kg): 0.6 ± 0.1
- ANGPTL3 gene expression (mean ± SD) (100 mg/kg): 0.4 ± 0.1
- ANGPTL4 gene expression (mean ± SD) (100 mg/kg): 1.6 ± 0.3
- ANGPTL8 gene expression (mean ± SD) (100 mg/kg): 0.4 ± 0.1
- ApoC-III gene expression (mean ± SD) (100 mg/kg): 0.5 ± 0.0
- CCR2 gene expression (mean ± SD) (100 mg/kg): 1.6 ± 0.4
- CCR5 gene expression (mean ± SD) (100 mg/kg): 1.4 ± 0.3
- CRP gene expression (mean ± SD) (100 mg/kg): 0.6 ± 0.1
- CXCL1/KC gene expression (mean ± SD) (100 mg/kg): 0.2 ± 0.1
- Fetuin-A gene expression (mean ± SD) (100 mg/kg): 0.7 ± 0.1
- IL-1β gene expression (mean ± SD) (100 mg/kg): 1.1 ± 0.5
- IL-6 gene expression (mean ± SD) (100 mg/kg): 0.9 ± 0.3
- LDL receptor gene expression (mean ± SD) (100 mg/kg): 0.9 ± 0.2
- LPL gene expression (mean ± SD) (100 mg/kg): 7.4 ± 0.9
- MCP-1 gene expression (mean ± SD) (100 mg/kg): 1.7 ± 0.7
- MIP-1β gene expression (mean ± SD) (100 mg/kg): 2.3 ± 0.9
- MMP-2 gene expression (mean ± SD) (100 mg/kg): 0.5 ± 0.2
- NF-κB gene expression (mean ± SD) (100 mg/kg): 0.9 ± 0.1
- PNPLA3 gene expression (mean ± SD) (100 mg/kg): 0.2 ± 0.1
- SCD1 gene expression (mean ± SD) (100 mg/kg): 0.3 ± 0.1
- SREBP-1 gene expression (mean ± SD) (100 mg/kg): 0.9 ± 0.2
- Sulf-2 gene expression (mean ± SD) (100 mg/kg): 3.8 ± 0.7
- TIMP-1 gene expression (mean ± SD) (100 mg/kg): 3.8 ± 1.6
- TNF-α gene expression (mean ± SD) (100 mg/kg): 2.0 ± 0.8
- α-SMA gene expression (mean ± SD) (100 mg/kg): 2.4 ± 0.9
- ACC1 gene expression (mean ± SD) (300 mg/kg): 0.8 ± 0.1
- ACC2 gene expression (mean ± SD) (300 mg/kg): 0.5 ± 0.1
- ADH-4 gene expression (mean ± SD) (300 mg/kg): 0.5 ± 0.1
- ANGPTL3 gene expression (mean ± SD) (300 mg/kg): 0.4 ± 0.1
- ANGPTL4 gene expression (mean ± SD) (300 mg/kg): 1.7 ± 0.3
- ANGPTL8 gene expression (mean ± SD) (300 mg/kg): 0.2 ± 0.1
- ApoC-III gene expression (mean ± SD) (300 mg/kg): 0.4 ± 0.1
- CCR2 gene expression (mean ± SD) (300 mg/kg): 1.7 ± 0.7
- CCR5 gene expression (mean ± SD) (300 mg/kg): 1.3 ± 0.3
- CRP gene expression (mean ± SD) (300 mg/kg): 0.5 ± 0.1
- CXCL1/KC gene expression (mean ± SD) (300 mg/kg): 0.2 ± 0.1
- Fetuin-A gene expression (mean ± SD) (300 mg/kg): 0.7 ± 0.1
- IL-1β gene expression (mean ± SD) (300 mg/kg): 0.7 ± 0.3
- IL-6 gene expression (mean ± SD) (300 mg/kg): 0.6 ± 0.2
- LDL receptor gene expression (mean ± SD) (300 mg/kg): 0.8 ± 0.1
- LPL gene expression (mean ± SD) (300 mg/kg): 6.9 ± 1.1
- MCP-1 gene expression (mean ± SD) (300 mg/kg): 1.6 ± 0.7
- MIP-1β gene expression (mean ± SD) (300 mg/kg): 2.8 ± 1.4
- MMP-2 gene expression (mean ± SD) (300 mg/kg): 0.9 ± 0.2
- NF-κB gene expression (mean ± SD) (300 mg/kg): 0.8 ± 0.1
- PNPLA3 gene expression (mean ± SD) (300 mg/kg): 0.2 ± 0.2
- SCD1 gene expression (mean ± SD) (300 mg/kg): 0.4 ± 0.2
- SREBP-1 gene expression (mean ± SD) (300 mg/kg): 0.7 ± 0.1
- Sulf-2 gene expression (mean ± SD) (300 mg/kg): 3.3 ± 0.9
- TIMP-1 gene expression (mean ± SD) (300 mg/kg): 4.4 ± 2.1
- TNF-α gene expression (mean ± SD) (300 mg/kg): 1.9 ± 0.7
- α-SMA gene expression (mean ± SD) (300 mg/kg): 2.5 ± 0.7
